For one data set, the system named is lovo colon cancer cells. The experiment in a line: Side population inhibition on lovo colon cancer cells. The data set is classed as cell-based. As to the method: The relationship of compound structure and compound activity of various Formula I compounds, i.e., 5-benzoyl-3,4-dihydropyrimidin-2(1H)-one/thione compounds, on inhibition of side population cancer stem cells was studied. The various 5-benzoyl-3,4-dihydropyrimidin-2(1H)-one/thione compounds and the corresponding inhibition activity are provided below in Table 1.
The newly synthesized compounds DHP (1-9) were evaluated for side population inhibition on lovo colon cancer cells (%) at 10 μM concentration. […] It was noted that most of the compounds which include a methoxy group at R1 were active. The methoxy group seems to help the molecule to align in protein pocket. Compounds with an oxygen atom at R2 were also active. It seems that the oxygen atom at position R2 also plays some important role in binding with protein pocket.
For DCV staining, cells were pelleted and suspended in DMEM cell culture medium at a concentration of 1*10^6 cells/ml. DCV (Invitrogen Molecular Probes®, Eugene, Oreg.) was added at a final staining concentration of 10 μM, as this concentration gave optimal separation between SP and non SP cells. PI stained was used to exclude dead cells. Functionally, to gate only side population cells, Verapamil 200 μM or FTC 10 μg/ml was used. All analyses were performed on a FACS LSRII (BD Biosciences). […]

In data set [1] the test system is MCF-7 breast cancer cells. The experiment in a line: Side population analysis of MCF-7 breast cancer cells (DyeCycle Violet staining). Particulars: DHP-5 50, 75 and 100 μM, Verapamil 200 μM. The class given is cell-based, human. As to the method:
(§1) For DCV staining, cells were pelleted and suspended in DMEM cell culture medium at a concentration of 1*10^6 cells/ml. DCV (Invitrogen Molecular Probes®, Eugene, Oreg.) was added at a final staining concentration of 10 μM, as this concentration gave optimal separation between SP and non SP cells. PI stained was used to exclude dead cells. Functionally, to gate only side population cells, Verapamil 200 μM or FTC 10 μg/ml was used. All analyses were performed on a FACS LSRII (BD Biosciences). Debris and cell clusters were excluded during side-scatter and forward-scatter analyses.

Data set [2] deals with tumor derived cells of LOVO xenograft. The experiment in a line: Side population analysis of tumor derived cells of LOVO xenograft. The class given is in vivo, Nude mice. Particulars: DHP-5 50 mg/kg for 14 days, Verapamil 200 μM. As to the method: as §1
A side population analysis of tumor derived cells of LOVO xenograft that were untreated (FIG. 4A), treated with side population inhibitor reference drug Verapamil 200 μM (FIG. 4B), and side population analysis of tumor cells derived from animals treated by DHP-5 50 mg/kg for 14 days.
Nude mice (Jackson Laboratories, Bar Harbor, Me., USA) were injected with 4*106 cells of MDA-MB-468 and LOVO subcutaneously in the right flank, and tumor size was measured weekly using a caliper. When the tumor reached approximately 400 mm^3 […], the mice were divided into control treated groups, the treatment including administration of DHP-5 (50 mg/Kg) via intraperitoneal injection daily for 14 days. The general toxicity of the treatment was determined by measuring the total body weight of the treated and control mice. […]

Another data set concerns MCF-7 cells. The experiment in a line: Flow cytometric DNA cell cycle analysis. The following applies: DHP-5 treated vs untreated. The class given is cell-based, human. As to the method: 2×10^6 cells were fixed in 1 ml ethanol (70%) for 60 min. at room temperature. Harvested cells were resuspended in 1 ml Na citrate (50 mM) containing 250 μg RNase A and incubated at 50° C. for 60 min. Next, cells were resuspended in the same buffer containing 4 μg propidium iodine (PI) and incubated for 30 min. before being analyzed by flow cytometry (Becton Dickinson, San Jose, Calif., USA). The percentage of cells in various cell cycle phases was determined by using Cell Quest Pro software (Becton Dickinson).
For orientation: In flow cytometry, cells or beads pass a laser one at a time.

The target in data set [3] is T1, ABCG2 (Homo sapiens, UniProt Q9UNQ0).
T1 construct: endogenous in cells; host or cells: MCF-7 cells
T1 sequence (Q9UNQ0 1-655): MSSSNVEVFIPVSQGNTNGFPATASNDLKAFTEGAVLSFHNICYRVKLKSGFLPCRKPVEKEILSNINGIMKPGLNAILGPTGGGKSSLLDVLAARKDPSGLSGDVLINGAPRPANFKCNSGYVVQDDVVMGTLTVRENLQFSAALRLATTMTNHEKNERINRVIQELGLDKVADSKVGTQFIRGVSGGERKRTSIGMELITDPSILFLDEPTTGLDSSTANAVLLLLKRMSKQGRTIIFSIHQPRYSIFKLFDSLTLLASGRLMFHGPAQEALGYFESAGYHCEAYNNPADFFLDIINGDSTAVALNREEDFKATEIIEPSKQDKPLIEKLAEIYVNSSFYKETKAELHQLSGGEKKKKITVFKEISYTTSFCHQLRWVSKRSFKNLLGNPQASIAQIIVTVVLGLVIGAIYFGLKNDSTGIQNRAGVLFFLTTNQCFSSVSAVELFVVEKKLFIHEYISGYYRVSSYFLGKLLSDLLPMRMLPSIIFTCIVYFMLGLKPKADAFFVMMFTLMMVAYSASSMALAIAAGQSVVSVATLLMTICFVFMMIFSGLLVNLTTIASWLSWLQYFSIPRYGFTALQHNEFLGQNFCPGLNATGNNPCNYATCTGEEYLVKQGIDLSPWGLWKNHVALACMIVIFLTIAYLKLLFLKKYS
The experiment in a line: Mitoxantrone accumulation in MCF-7 cells. The class given is cell-based.

For data set [4], the system named is ABCG2. The experiment in a line: Immunofluorescence staining of ABCG2 in MCF-7 cells. The data set is classed as cell-based, human.
In data set [5] the test system is MDA-MB-468 (breast cancer xenograft). The experiment in a line: Antitumor activity in mice, MDA-MB-468 breast cancer xenograft. The data set is classed as in vivo, Nude mice. Particulars: 50 mg/Kg intraperitoneal daily for 14 days. As to the method: (§2) Nude mice (Jackson Laboratories, Bar Harbor, Me., USA) were injected with 4*106 cells of MDA-MB-468 and LOVO subcutaneously in the right flank, and tumor size was measured weekly using a caliper. When the tumor reached approximately 400 mm^3 […], the mice were divided into control treated groups, the treatment including administration of DHP-5 (50 mg/Kg) via intraperitoneal injection daily for 14 days. The general toxicity of the treatment was determined by measuring the total body weight of the treated and control mice. The breeding, care and sacrifice of the animals were in accordance with the protocols approved by the Animal Care and Use Committee of the King Faisal Specialist Hospital and Research Centre.
(§3) Tumor growth of MDA-MB-468 (breast cancer xenograft) and LOVO (colon cancer xenograft) was recorded in untreated mice groups and DHP-5 (50 mg/kg) treated mice groups.

In data set [6] the test system is LOVO (colon cancer xenograft). The experiment in a line: Antitumor activity in mice, LOVO colon cancer xenograft. The data set is classed as in vivo, Nude mice. Particulars: 50 mg/Kg intraperitoneal daily for 14 days. As to the method:
as §2, §3

Data set [7] in a line: General toxicity by total body weight of treated mice. The following applies: animal models of breast and colon cancer. The class given is in vivo. As to the method:
as §2

The subject of the next data set is breast cancer cells. The experiment in a line: Self-renewal ability of breast cancer cells. The data set is classed as cell-based.
Data set [8] in a line: Apoptosis induction in vitro. The class given is cell-based.
Data set [9] is described as follows: Cell proliferation in vitro. The class given is cell-based.

SMILES strings stand for the structures. Entries after “also recorded” stand apart in the source; their conditions may differ.

Here are results for 1 compound from US9119856B1, “Method for treating cancer using a dihydropyrimidine derivative” (KING SAUD UNIVERSITY, priority 2015, dated 2015).

What is called inhibition is the relative decrease from the control value, in per cent.

With `CCOc1ccc(C2NC(=O)NC=C2C(=O)c2cc(OC)c(OC)c(OC)c2)cc1` (stereo not shown) [DHP-5, 4-(4-ethoxyphenyl)-5-(3,4,5-trimethoxybenzoyl)-3,4-dihydropyrimidin-2(1H)-one], in the data set with lovo colon cancer cells (10 μM), the “side population inhibition, activity in words” value is listed as “moderately active”. Also, 10 µM produced 58.8% inhibition in the data set on lovo colon cancer cells (Homo sapiens). Also, in [1], the “inhibitory effect on side population cancer stem cells versus Verapamil” value is “more potent inhibitor of side population cells than reference drug Verapamil; also recorded: more potent inhibitory effect of DHP-5 on side population cancer stem cells than reference drug Verapamil”. For the same compound, in [2], the “inhibitory effect on side population cancer stem cells of xenograft tumor cells versus Verapamil” value is “more potent inhibitory effect of DHP-5 on side population cancer stem cells than reference drug Verapamil”. Moreover, in the data set on MCF-7 cells, the “cell cycle phase distribution” value is “increased accumulation of treated cells in G2+M mitosis phase”. Besides, the “Mitoxantrone accumulation (selective ABCG2 substrate)” value on ABCG2 [3] is given as “increase in Mitoxantrone accumulation”. In addition, in the data set on ABCG2 [4], the “expression of ABCG2” value was “decreased the expression of ABCG2”. Further, the “tumor growth, MDA-MB-468 breast cancer xenograft” value in data set [5] is reported as “superior efficacy compared to reference drug Doxorubicin; also recorded: shrinking of tumor”. The “tumor growth, LOVO colon cancer xenograft” value in data set [6] was “superior efficacy compared to reference drug Doxorubicin; also recorded: shrinking of tumor”. The general toxicity result in data set [7] is listed as “without any sign of general toxicity”. Moreover, the “self-renewal ability of breast cancer cells” value with breast cancer cells was “blocking self-renewal ability of breast cancer cells in a dose dependent manner”. Besides, in data set [8], the apoptosis result is “induced apoptosis”. Besides, the cell proliferation entry in data set [9] was “blocked cell proliferation”.
